In ChEMBL document CHEMBL1909046, “DrugMatrix in vitro pharmacology data”:

Assays:
[1] = target: Insulin receptor (Rattus norvegicus, UniProt P15127); type: cell membranes, Wistar, Liver, Membrane; note: in other assays of this panel Not Active means under 50% inhibition at 10 µM
[2] = target: 5-hydroxytryptamine receptor 6 (Homo sapiens, UniProt P50406); type: cell membranes, HeLa, Membrane; details: hela; note: in other assays of this panel Not Active means under 50% inhibition at 10 µM
[3] = target: Mu-type opioid receptor (Homo sapiens, UniProt P35372); assay: DRUGMATRIX: Opiate mu (OP3, MOP) radioligand binding (ligand: [3H] Diprenorphine); type: cell membranes, CHO-K1, Membrane; details: cho-k1; Not Active = under 50% inhibition at 10 µM
[4] = target: Substance-P receptor (Homo sapiens, UniProt P25103); type: cell membranes, Membrane; details: cho; note: in other assays of this panel Not Active means under 50% inhibition at 10 µM
[5] = target: T1, C-X-C chemokine receptor type 2 (Homo sapiens, UniProt P25025); type: cell membranes, Membrane; details: cho-k1; note: in other assays of this panel Not Active means under 50% inhibition at 10 µM
T1 sequence (P25025 whole entry): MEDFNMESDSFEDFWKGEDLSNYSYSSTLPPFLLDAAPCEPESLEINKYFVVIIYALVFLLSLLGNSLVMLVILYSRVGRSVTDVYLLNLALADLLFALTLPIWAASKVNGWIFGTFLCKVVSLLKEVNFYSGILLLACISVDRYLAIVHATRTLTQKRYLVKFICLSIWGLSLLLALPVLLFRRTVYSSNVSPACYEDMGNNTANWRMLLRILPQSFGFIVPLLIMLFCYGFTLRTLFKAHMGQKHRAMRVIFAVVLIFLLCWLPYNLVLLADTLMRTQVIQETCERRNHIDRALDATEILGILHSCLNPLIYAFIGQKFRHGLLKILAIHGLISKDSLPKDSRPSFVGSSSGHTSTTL

[6] = target: T2, Cytochrome P450 1A2 (Homo sapiens, UniProt P05177); details: bti-tn-5b1-4; note: in other assays of this panel Not Active means under 50% inhibition at 10 µM
T2 sequence (P05177 whole entry): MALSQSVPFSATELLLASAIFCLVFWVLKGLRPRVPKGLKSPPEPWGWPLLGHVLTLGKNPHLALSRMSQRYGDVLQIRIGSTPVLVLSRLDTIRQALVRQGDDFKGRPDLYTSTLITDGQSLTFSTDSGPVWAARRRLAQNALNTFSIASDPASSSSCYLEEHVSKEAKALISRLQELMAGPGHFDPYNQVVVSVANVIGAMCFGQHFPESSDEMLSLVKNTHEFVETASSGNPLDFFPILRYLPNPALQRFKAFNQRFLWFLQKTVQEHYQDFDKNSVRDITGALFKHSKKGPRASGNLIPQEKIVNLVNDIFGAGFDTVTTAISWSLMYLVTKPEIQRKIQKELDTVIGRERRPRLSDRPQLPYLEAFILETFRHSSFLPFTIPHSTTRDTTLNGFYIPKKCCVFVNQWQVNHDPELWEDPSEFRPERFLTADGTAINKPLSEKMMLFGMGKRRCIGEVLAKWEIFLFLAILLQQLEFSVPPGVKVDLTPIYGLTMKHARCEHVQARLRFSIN

[7] = target: Beta-1 adrenergic receptor (Homo sapiens, UniProt P08588); assay: DRUGMATRIX: Adrenergic beta1 radioligand binding (ligand: [125I] Cyanopindolol); type: cell membranes, CHO-K1, Membrane; details: cho-k1; Not Active = under 50% inhibition at 10 µM
[8] = DRUGMATRIX: GABAA, Chloride Channel, TBOB radioligand binding (ligand: [3H] TBOB); type: cell membranes, Rattus norvegicus, Wistar, Cerebral cortex, Membrane; details: Not Active = under 50% inhibition at 10 µM
[9] = target: T3, Neuropeptide Y receptor type 1 (Homo sapiens, UniProt P25929); type: cell membranes, Membrane; details: sk-n-mc; note: in other assays of this panel Not Active means under 50% inhibition at 10 µM
T3 sequence (P25929 whole entry): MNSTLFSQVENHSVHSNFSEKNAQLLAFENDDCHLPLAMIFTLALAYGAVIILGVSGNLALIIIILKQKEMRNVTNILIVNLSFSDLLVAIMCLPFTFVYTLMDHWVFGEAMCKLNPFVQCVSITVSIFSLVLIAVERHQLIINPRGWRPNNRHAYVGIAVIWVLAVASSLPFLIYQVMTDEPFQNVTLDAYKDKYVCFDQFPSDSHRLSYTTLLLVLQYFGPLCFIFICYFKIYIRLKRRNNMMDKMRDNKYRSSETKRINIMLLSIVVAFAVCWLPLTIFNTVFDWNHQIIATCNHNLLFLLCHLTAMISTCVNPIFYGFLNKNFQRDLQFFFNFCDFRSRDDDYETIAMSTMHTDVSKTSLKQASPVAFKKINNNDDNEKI

[10] = target: Platelet-activating factor receptor (Homo sapiens, UniProt P25105); type: tissue-based; note: in other assays of this panel Not Active means under 50% inhibition at 10 µM
[11] = DRUGMATRIX: Potassium Channel [KATP] radioligand binding (ligand: [3H] Glyburide); type: cell membranes, Membrane; details: hit-t15; Not Active = under 50% inhibition at 10 µM

Platelet-activating factor receptor, sequence (P25105 whole entry): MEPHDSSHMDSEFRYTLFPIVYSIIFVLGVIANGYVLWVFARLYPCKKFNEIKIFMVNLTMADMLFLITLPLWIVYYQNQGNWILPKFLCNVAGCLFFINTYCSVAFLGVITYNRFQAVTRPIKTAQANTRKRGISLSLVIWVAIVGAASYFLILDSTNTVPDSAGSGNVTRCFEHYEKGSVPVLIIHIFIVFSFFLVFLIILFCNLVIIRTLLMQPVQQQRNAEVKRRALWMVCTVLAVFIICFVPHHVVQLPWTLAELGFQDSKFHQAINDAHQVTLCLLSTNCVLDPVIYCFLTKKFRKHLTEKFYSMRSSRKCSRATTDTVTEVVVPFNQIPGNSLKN
Beta-1 adrenergic receptor, sequence (P08588 whole entry): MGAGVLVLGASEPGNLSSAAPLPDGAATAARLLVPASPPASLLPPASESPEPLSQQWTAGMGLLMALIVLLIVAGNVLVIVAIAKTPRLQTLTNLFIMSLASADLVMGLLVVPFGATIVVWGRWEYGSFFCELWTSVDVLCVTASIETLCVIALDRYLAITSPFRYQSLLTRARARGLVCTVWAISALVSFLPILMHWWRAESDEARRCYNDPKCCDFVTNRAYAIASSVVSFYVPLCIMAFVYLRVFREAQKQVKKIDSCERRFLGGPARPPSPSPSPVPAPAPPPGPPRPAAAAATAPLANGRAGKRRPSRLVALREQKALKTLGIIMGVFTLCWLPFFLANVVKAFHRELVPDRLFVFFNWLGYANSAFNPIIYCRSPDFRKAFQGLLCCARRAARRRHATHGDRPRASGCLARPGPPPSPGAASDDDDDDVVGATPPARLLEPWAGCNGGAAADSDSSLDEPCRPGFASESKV
Substance-P receptor, sequence (P25103 whole entry): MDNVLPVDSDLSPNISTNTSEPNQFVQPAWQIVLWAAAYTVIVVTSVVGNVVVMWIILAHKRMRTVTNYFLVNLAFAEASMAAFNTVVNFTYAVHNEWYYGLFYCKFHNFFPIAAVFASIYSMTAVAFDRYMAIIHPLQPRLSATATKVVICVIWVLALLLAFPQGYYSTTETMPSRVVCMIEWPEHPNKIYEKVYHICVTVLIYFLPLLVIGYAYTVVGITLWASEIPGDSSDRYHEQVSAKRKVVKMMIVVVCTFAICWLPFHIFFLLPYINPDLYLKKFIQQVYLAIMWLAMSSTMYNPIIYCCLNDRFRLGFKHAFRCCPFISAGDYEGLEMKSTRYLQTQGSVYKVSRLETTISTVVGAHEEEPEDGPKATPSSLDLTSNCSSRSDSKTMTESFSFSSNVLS
5-hydroxytryptamine receptor 6, sequence (P50406 whole entry): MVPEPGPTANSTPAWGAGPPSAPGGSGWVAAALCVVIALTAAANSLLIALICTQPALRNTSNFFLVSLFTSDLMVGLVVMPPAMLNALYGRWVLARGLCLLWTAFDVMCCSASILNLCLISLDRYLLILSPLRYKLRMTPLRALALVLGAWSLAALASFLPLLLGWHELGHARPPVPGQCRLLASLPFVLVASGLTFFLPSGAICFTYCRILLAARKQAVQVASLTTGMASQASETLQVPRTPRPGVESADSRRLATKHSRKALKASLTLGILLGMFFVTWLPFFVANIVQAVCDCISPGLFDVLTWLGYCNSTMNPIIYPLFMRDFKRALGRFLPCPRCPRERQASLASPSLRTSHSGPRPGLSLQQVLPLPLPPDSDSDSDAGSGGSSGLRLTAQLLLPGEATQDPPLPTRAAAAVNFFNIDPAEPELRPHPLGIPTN
Mu-type opioid receptor, sequence (P35372 whole entry): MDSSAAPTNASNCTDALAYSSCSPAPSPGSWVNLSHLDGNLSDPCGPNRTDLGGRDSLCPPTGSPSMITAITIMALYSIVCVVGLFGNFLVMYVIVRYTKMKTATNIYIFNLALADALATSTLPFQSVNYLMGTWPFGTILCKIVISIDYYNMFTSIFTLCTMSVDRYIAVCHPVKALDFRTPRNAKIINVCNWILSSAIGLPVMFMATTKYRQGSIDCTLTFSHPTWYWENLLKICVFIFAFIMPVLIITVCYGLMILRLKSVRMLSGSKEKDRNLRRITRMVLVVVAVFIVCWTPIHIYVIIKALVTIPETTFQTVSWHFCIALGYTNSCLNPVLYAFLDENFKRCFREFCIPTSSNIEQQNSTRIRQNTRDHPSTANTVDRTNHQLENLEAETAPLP
Insulin receptor, sequence (P15127 27-759 limits assumed): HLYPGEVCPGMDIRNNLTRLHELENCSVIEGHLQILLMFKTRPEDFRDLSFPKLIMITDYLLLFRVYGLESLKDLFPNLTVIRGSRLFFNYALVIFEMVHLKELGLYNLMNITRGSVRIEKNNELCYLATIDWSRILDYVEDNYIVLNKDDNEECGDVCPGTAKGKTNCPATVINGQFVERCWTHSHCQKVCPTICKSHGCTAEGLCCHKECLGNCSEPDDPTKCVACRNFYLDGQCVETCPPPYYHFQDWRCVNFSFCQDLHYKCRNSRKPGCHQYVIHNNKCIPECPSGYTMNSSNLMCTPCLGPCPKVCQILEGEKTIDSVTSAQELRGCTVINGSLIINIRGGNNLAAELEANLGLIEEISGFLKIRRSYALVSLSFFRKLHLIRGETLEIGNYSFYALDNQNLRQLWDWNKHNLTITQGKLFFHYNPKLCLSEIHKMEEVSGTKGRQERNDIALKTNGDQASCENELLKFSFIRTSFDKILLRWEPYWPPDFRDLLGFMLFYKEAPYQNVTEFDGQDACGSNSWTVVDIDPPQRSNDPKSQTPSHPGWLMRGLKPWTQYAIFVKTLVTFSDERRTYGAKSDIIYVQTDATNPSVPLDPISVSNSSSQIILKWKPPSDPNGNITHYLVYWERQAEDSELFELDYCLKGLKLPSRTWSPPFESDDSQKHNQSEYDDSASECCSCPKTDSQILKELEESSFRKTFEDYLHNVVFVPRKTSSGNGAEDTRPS
Insulin receptor, sequence (P15127 764-1383 limits assumed): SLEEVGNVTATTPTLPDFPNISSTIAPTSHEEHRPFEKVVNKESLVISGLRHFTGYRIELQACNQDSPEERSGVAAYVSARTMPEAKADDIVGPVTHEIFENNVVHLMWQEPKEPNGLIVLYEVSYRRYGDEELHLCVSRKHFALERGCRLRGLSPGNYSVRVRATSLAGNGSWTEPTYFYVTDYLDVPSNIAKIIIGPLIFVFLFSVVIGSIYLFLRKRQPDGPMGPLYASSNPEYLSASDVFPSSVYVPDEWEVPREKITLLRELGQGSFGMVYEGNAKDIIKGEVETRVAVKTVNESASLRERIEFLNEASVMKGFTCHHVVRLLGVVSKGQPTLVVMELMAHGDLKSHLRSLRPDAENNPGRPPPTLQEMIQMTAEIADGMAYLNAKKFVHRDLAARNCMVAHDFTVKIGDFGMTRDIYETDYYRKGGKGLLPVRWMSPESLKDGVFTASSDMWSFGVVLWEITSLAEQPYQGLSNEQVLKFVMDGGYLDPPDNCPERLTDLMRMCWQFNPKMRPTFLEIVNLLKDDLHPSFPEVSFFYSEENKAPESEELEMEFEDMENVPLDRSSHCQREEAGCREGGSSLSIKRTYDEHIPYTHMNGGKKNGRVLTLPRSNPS

O=C1CCC(N2C(=O)c3ccccc3C2=O)C(=O)N1 (stereo not drawn) [THALIDOMIDE]
Not Active: IC50 [1] | IC50 [2] | IC50 [3] | IC50 [4] | IC50 [5] | IC50 [6] | Ki [6] | IC50 [7] | IC50 [8] | Ki [8] | IC50 [9] | IC50 [10] | IC50 [11] | Ki [11]

Cc1cccc(Nc2ccncc2S(=O)(=O)NC(=O)NC(C)C)c1 [TORSEMIDE]
Not Active: IC50 [1] | IC50 [2] | IC50 [3] | IC50 [4] | IC50 [5] | IC50 [6] | Ki [6] | IC50 [7] | IC50 [8] | Ki [8] | IC50 [9] | IC50 [10] | IC50 [11] | Ki [11]

CC(C)C[C@H](NC(=O)[C@@H](O)[C@H](N)Cc1ccccc1)C(=O)O [UBENIMEX]
Not Active: IC50 [1] | IC50 [2] | IC50 [3] | IC50 [4] | IC50 [5] | IC50 [6] | Ki [6] | IC50 [7] | IC50 [8] | Ki [8] | IC50 [9] | IC50 [10] | IC50 [11] | Ki [11]

Cc1onc(-c2ccccc2)c1-c1ccc(S(N)(=O)=O)cc1 [VALDECOXIB]
Not Active: IC50 [1] | IC50 [2] | IC50 [3] | IC50 [4] | IC50 [5] | IC50 [6] | Ki [6] | IC50 [7] | IC50 [8] | Ki [8] | IC50 [9] | IC50 [10] | IC50 [11] | Ki [11]

CC[C@]1(O)C[C@@H]2CN(CCc3c([nH]c4ccccc34)[C@@](C(=O)OC)(c3cc4c(cc3OC)N(C)[C@H]3[C@@](O)(C(=O)OC)[C@H](OC(C)=O)[C@]5(CC)C=CCN6CC[C@]43[C@@H]65)C2)C1 [VINBLASTINE]
Not Active: IC50 [1] | IC50 [2] | IC50 [3] | IC50 [4] | IC50 [5] | IC50 [6] | Ki [6] | IC50 [7] | IC50 [8] | Ki [8] | IC50 [9] | IC50 [10] | IC50 [11] | Ki [11]

C[C@@H](N)[C@H]1CC[C@H](C(=O)Nc2ccncc2)CC1 [Y-27632]
Not Active: IC50 [1] | IC50 [2] | IC50 [3] | IC50 [4] | IC50 [5] | IC50 [6] | Ki [6] | IC50 [7] | IC50 [8] | Ki [8] | IC50 [9] | IC50 [10] | IC50 [11] | Ki [11]

[Cl-].[Cl-].[Zn+2] [ZINC CHLORIDE]
Not Active: IC50 [1] | IC50 [2] | IC50 [3] | IC50 [4] | IC50 [5] | IC50 [6] | Ki [6] | IC50 [7] | IC50 [8] | Ki [8] | IC50 [9] | IC50 [10] | IC50 [11] | Ki [11]
